Where two headings read alike, the source gives them in different places.
Columns and labels:
[1] = system: Loblolly pine megagametophytes
Method: As in Example 9, the explants in this experiment were megagametophytes, containing Stage 2-4 somatic embryos, excised from the open pollinated summer cones of four different genotypes of Loblolly pine. Megagametophytes were isolated as in Example 4 and put on initiation media #889 (Table 47). The experiment consisted of three replications per treatment, per cone collection. Replications consisted of ten explants in adjacent wells on a single well plate. Plates were wrapped in […] and incubated in the dark at 23-24° C.
Explants were cultured on solid media under atmospheres containing three levels of oxygen: normal air (21% oxygen), 30% oxygen and 50% oxygen. All oxygen treatments were applied at either normal atmospheric pressure or under an elevated pressure of 1.5 atmospheres.
After eight weeks, extrusion and initiation were scored, as described in Example 3.

loblolly pine = details: silver nitrate at about 29-59 μM; cited from earlier work
[2] = genotype 5-1036, 30% Oxygen + Pressure
[3] = genotype 5-1036, 50% Oxygen + Pressure
[4] = genotype 11-1057, 30% Oxygen + Pressure
[5] = genotype 11-1057, 50% Oxygen + Pressure
[6] = genotype 18-120, 30% Oxygen + Pressure
[7] = genotype 18-120, 50% Oxygen + Pressure
[8] = genotype 18-1212, 30% Oxygen + Pressure
[9] = genotype 18-1212, 50% Oxygen + Pressure

Question: With `O=O` [Oxygen] as the compound, how does the “% Megagametophytes Extruding” value ([1]; Total, 30% Oxygen) read?
Answer: 45.3%

Question: And the “% Megagametophytes Initiating” value ([1]; Total, 30% Oxygen)?
Answer: 5.9%

Question: What about the “% Megagametophytes Extruding” value ([1]; Total, 30% Oxygen + Pressure) of the same compound?
Answer: 53.2%

Question: And the “% Megagametophytes Initiating” value ([1]; Total, 30% Oxygen + Pressure)?
Answer: 7.6%

Question: And the “% Megagametophytes Extruding” value ([1]; Total, 50% Oxygen)?
Answer: 49.8%

Question: What about the “% Megagametophytes Initiating” value ([1]; Total, 50% Oxygen) of the same compound?
Answer: 11.1%

Question: And the “% Megagametophytes Extruding” value ([1]; Total, 50% Oxygen + Pressure)?
Answer: 56.9%

Question: What about the “% Megagametophytes Initiating” value ([1]; Total, 50% Oxygen + Pressure) of the same compound?
Answer: 8.6%

Question: And the “% Megagametophytes Extruding” value ([1]; genotype 5-1036, 30% Oxygen)?
Answer: 57.5 (3.8) %

Question: And the “% Megagametophytes Initiating” value ([1]; genotype 5-1036, 30% Oxygen)?
Answer: 3.3 (3.3) %

Question: What about the “% Megagametophytes Extruding” value [1, 2] of the same compound?
Answer: 73.3 (8.8) %

Question: What about the “% Megagametophytes Initiating” value [1, 2] of the same compound?
Answer: 13.3 (3.3) %

Question: What about the “% Megagametophytes Extruding” value ([1]; genotype 5-1036, 50% Oxygen) of the same compound?
Answer: 50.0 (10.0) %

Question: And the “% Megagametophytes Initiating” value ([1]; genotype 5-1036, 50% Oxygen)?
Answer: 20.0 (5.8) %

Question: And the “% Megagametophytes Extruding” value [1, 3]?
Answer: 83.3 (3.3) %

Question: What about the “% Megagametophytes Initiating” value [1, 3] of the same compound?
Answer: 13.3 (3.3) %

Question: What about the “% Megagametophytes Extruding” value ([1]; genotype 11-1057, 30% Oxygen) of the same compound?
Answer: 30.0 (15.3) %

Question: And the “% Megagametophytes Initiating” value ([1]; genotype 11-1057, 30% Oxygen)?
Answer: 10.0 (0.0) %

Question: And the “% Megagametophytes Extruding” value [1, 4]?
Answer: 34.4 (16.1) %

Question: What about the “% Megagametophytes Initiating” value [1, 4] of the same compound?
Answer: 6.7 (67) %

Question: What about the “% Megagametophytes Extruding” value ([1]; genotype 11-1057, 50% Oxygen) of the same compound?
Answer: 53.3 (3.3) %

Question: And the “% Megagametophytes Initiating” value ([1]; genotype 11-1057, 50% Oxygen)?
Answer: 13.0 (3.3) %

Question: And the “% Megagametophytes Extruding” value [1, 5]?
Answer: 43.3 (3.3) %

Question: And the “% Megagametophytes Initiating” value [1, 5]?
Answer: 10.0 (5.8) %

Question: And the “% Megagametophytes Extruding” value ([1]; genotype 18-120, 30% Oxygen)?
Answer: 33.3 (19.2) %

Question: What about the “% Megagametophytes Initiating” value ([1]; genotype 18-120, 30% Oxygen) of the same compound?
Answer: 0.0 (0.0) %

Question: What about the “% Megagametophytes Extruding” value [1, 6] of the same compound?
Answer: 16.7 (8.8) %

Question: What about the “% Megagametophytes Initiating” value [1, 6] of the same compound?
Answer: 6.7 (6.7) %

Question: And the “% Megagametophytes Extruding” value ([1]; genotype 18-120, 50% Oxygen)?
Answer: 40.0 (10.0) %

Question: And the “% Megagametophytes Initiating” value ([1]; genotype 18-120, 50% Oxygen)?
Answer: 0.0 (0.0) %

Question: And the “% Megagametophytes Extruding” value [1, 7]?
Answer: 30.8 (3.6) %

Question: What about the “% Megagametophytes Initiating” value [1, 7] of the same compound?
Answer: 4.2 (4.2) %

Question: And the “% Megagametophytes Extruding” value ([1]; genotype 18-1212, 30% Oxygen)?
Answer: 60.3 (8.0) %

Question: What about the “% Megagametophytes Initiating” value ([1]; genotype 18-1212, 30% Oxygen) of the same compound?
Answer: 10.4 (5.8) %

Question: And the “% Megagametophytes Extruding” value [1, 8]?
Answer: 88.4 (6.5) %

Question: And the “% Megagametophytes Initiating” value [1, 8]?
Answer: 3.7 (3.7) %

Question: What about the “% Megagametophytes Extruding” value ([1]; genotype 18-1212, 50% Oxygen) of the same compound?
Answer: 56.0 (3.6) %

Question: What about the “% Megagametophytes Initiating” value ([1]; genotype 18-1212, 50% Oxygen) of the same compound?
Answer: 11.2 (0.7) %

Question: What about the “% Megagametophytes Extruding” value [1, 9] of the same compound?
Answer: 70.0 (15.3) %

Question: And the “% Megagametophytes Initiating” value [1, 9]?
Answer: 10.0 (5.8) %

Question: For `O=[N+]([O-])[O-].[Ag+]` [silver nitrate], which embryogenic culture initiation (loblolly pine) is on record?
Answer: improved embryogenic culture initiation

Reference: patent US6492174B1, “Methods of initiating embryogenic cultures in plants” (Institute of Paper Science & Technology, priority 2000, dated 2002)
